Results from the NIST ThermoML archive (doi:10.1016/j.fluid.2006.03.015).

Test: molar heat capacity at constant pressure
Conditions: 101.33 kPa, Liquid

CCCCn1cc[n+](C)c1.O=S(=O)([O-])C(F)(F)F [1-butyl-3-methylimidazolium trifluoromethanesulfonate]
Conditions | molar heat capacity at constant pressure [J/K/mol]
313.16 K, Large sample (1 g) DSC | 448
315.15 K, Small sample (50 mg) DSC | 449
318.15 K, Large sample (1 g) DSC | 449
320.15 K, Small sample (50 mg) DSC | 451
323.14 K, Large sample (1 g) DSC | 451
325.15 K, Small sample (50 mg) DSC | 452
328.12 K, Large sample (1 g) DSC | 451
328.15 K, modulated-temperature differential scanning calorimetry MDSC | 443
330.15 K, Small sample (50 mg) DSC | 454
333.15 K, modulated-temperature differential scanning calorimetry MDSC | 446
333.17 K, Large sample (1 g) DSC | 450
335.15 K, Small sample (50 mg) DSC | 457
338.15 K, Large sample (1 g) DSC | 453
338.15 K, modulated-temperature differential scanning calorimetry MDSC | 448
340.15 K, Small sample (50 mg) DSC | 460
343.14 K, Large sample (1 g) DSC | 455
343.15 K, modulated-temperature differential scanning calorimetry MDSC | 450
345.15 K, Small sample (50 mg) DSC | 462
348.15 K, modulated-temperature differential scanning calorimetry MDSC | 453
348.18 K, Large sample (1 g) DSC | 456
350.15 K, Small sample (50 mg) DSC | 465
353.15 K, modulated-temperature differential scanning calorimetry MDSC | 454
353.18 K, Large sample (1 g) DSC | 459
355.15 K, Small sample (50 mg) DSC | 468
358.13 K, Large sample (1 g) DSC | 463
358.15 K, modulated-temperature differential scanning calorimetry MDSC | 458
360.15 K, Small sample (50 mg) DSC | 470
363.14 K, Large sample (1 g) DSC | 467
363.15 K, modulated-temperature differential scanning calorimetry MDSC | 460
365.15 K, Small sample (50 mg) DSC | 473
368.14 K, Large sample (1 g) DSC | 471
368.15 K, modulated-temperature differential scanning calorimetry MDSC | 463
370.15 K, Small sample (50 mg) DSC | 476
373.13 K, Large sample (1 g) DSC | 472
373.15 K, modulated-temperature differential scanning calorimetry MDSC | 464
375.15 K, Small sample (50 mg) DSC | 479
378.12 K, Large sample (1 g) DSC | 474
378.15 K, modulated-temperature differential scanning calorimetry MDSC | 468
380.15 K, Small sample (50 mg) DSC | 481
383.15 K, modulated-temperature differential scanning calorimetry MDSC | 468
383.16 K, Large sample (1 g) DSC | 477
385.15 K, Small sample (50 mg) DSC | 484
388.15 K, Large sample (1 g) DSC | 479
388.15 K, modulated-temperature differential scanning calorimetry MDSC | 471
390.15 K, Small sample (50 mg) DSC | 487
393.13 K, Large sample (1 g) DSC | 482
393.15 K, modulated-temperature differential scanning calorimetry MDSC | 472
395.15 K, Small sample (50 mg) DSC | 489
398.15 K, modulated-temperature differential scanning calorimetry MDSC | 475
398.16 K, Large sample (1 g) DSC | 484
400.15 K, Small sample (50 mg) DSC | 492
403.14 K, Large sample (1 g) DSC | 487
403.15 K, modulated-temperature differential scanning calorimetry MDSC | 476
405.15 K, Small sample (50 mg) DSC | 495
408.15 K, modulated-temperature differential scanning calorimetry MDSC | 477
408.17 K, Large sample (1 g) DSC | 489
410.15 K, Small sample (50 mg) DSC | 498
413.14 K, Large sample (1 g) DSC | 491
413.15 K, modulated-temperature differential scanning calorimetry MDSC | 481
415.15 K, Small sample (50 mg) DSC | 500
418.17 K, Large sample (1 g) DSC | 494
420.15 K, Small sample (50 mg) DSC | 503
423.14 K, Large sample (1 g) DSC | 494
425.15 K, Small sample (50 mg) DSC | 506

CCCC[n+]1ccccc1.O=S(=O)([N-]S(=O)(=O)C(F)(F)F)C(F)(F)F [1-butylpyridinium bis[(trifluoromethyl)sulfonyl]imide]
Conditions | molar heat capacity at constant pressure [J/K/mol]
323.18 K, Large sample (1 g) DSC | 592
328.15 K, modulated-temperature differential scanning calorimetry MDSC | 604
328.18 K, Large sample (1 g) DSC | 595
330.15 K, Small sample (50 mg) DSC | 587
333.13 K, Large sample (1 g) DSC | 596
333.15 K, modulated-temperature differential scanning calorimetry MDSC | 607
335.15 K, Small sample (50 mg) DSC | 590
338.14 K, Large sample (1 g) DSC | 600
338.15 K, modulated-temperature differential scanning calorimetry MDSC | 610
340.15 K, Small sample (50 mg) DSC | 594
343.15 K, modulated-temperature differential scanning calorimetry MDSC | 610
343.16 K, Large sample (1 g) DSC | 603
345.15 K, Small sample (50 mg) DSC | 596
348.12 K, Large sample (1 g) DSC | 603
348.15 K, modulated-temperature differential scanning calorimetry MDSC | 616
350.15 K, Small sample (50 mg) DSC | 600
353.14 K, Large sample (1 g) DSC | 604
353.15 K, modulated-temperature differential scanning calorimetry MDSC | 615
355.15 K, Small sample (50 mg) DSC | 603
358.15 K, Large sample (1 g) DSC | 609
358.15 K, modulated-temperature differential scanning calorimetry MDSC | 621
360.15 K, Small sample (50 mg) DSC | 605
363.15 K, modulated-temperature differential scanning calorimetry MDSC | 624
363.17 K, Large sample (1 g) DSC | 614
365.15 K, Small sample (50 mg) DSC | 607
368.15 K, modulated-temperature differential scanning calorimetry MDSC | 623
368.17 K, Large sample (1 g) DSC | 617
370.15 K, Small sample (50 mg) DSC | 610
373.15 K, modulated-temperature differential scanning calorimetry MDSC | 628
373.16 K, Large sample (1 g) DSC | 617
375.15 K, Small sample (50 mg) DSC | 613
378.13 K, Large sample (1 g) DSC | 618
378.15 K, modulated-temperature differential scanning calorimetry MDSC | 628
380.15 K, Small sample (50 mg) DSC | 616
383.14 K, Large sample (1 g) DSC | 621
383.15 K, modulated-temperature differential scanning calorimetry MDSC | 631
385.15 K, Small sample (50 mg) DSC | 619
388.14 K, Large sample (1 g) DSC | 623
388.15 K, modulated-temperature differential scanning calorimetry MDSC | 635
390.15 K, Small sample (50 mg) DSC | 622
393.14 K, Large sample (1 g) DSC | 626
393.15 K, modulated-temperature differential scanning calorimetry MDSC | 636
395.15 K, Small sample (50 mg) DSC | 624
398.13 K, Large sample (1 g) DSC | 630
398.15 K, modulated-temperature differential scanning calorimetry MDSC | 636
400.15 K, Small sample (50 mg) DSC | 627
403.15 K, modulated-temperature differential scanning calorimetry MDSC | 640
403.17 K, Large sample (1 g) DSC | 631
405.15 K, Small sample (50 mg) DSC | 630
408.14 K, Large sample (1 g) DSC | 632
408.15 K, modulated-temperature differential scanning calorimetry MDSC | 642
410.15 K, Small sample (50 mg) DSC | 633
413.15 K, modulated-temperature differential scanning calorimetry MDSC | 644
413.16 K, Large sample (1 g) DSC | 633
415.15 K, Small sample (50 mg) DSC | 635
418.13 K, Large sample (1 g) DSC | 636
418.15 K, modulated-temperature differential scanning calorimetry MDSC | 645
420.15 K, Small sample (50 mg) DSC | 639
423.15 K, Large sample (1 g) DSC | 635
425.15 K, Small sample (50 mg) DSC | 641

O [water]
Small sample (50 mg) DSC
Conditions | molar heat capacity at constant pressure [J/K/mol]
305.15 K | 74.95
310.15 K | 74.96
315.15 K | 74.9
320.15 K | 74.93
325.15 K | 75.01
330.15 K | 75.09
335.15 K | 75.11
340.15 K | 75.23
345.15 K | 75.31
350.15 K | 75.43
355.15 K | 75.53
360.15 K | 75.59
365.15 K | 75.72
370.15 K | 75.8
